From US20200030278A1, “PHARMACEUTICAL COMPOSITIONS OF METAP-2 INHIBITORS” (Zafgen, Inc., priority 2017, published 2020)
Read-outs that look alike come from different tables or passages of the source.

How the values were obtained:
[1] = Solubility (pH 7); assay type: physicochemical; details: pH 7, aqueous buffer
[2] = Protein binding in mouse plasma (dialysis); assay type: in vitro ADME; details: read-out: % Bound (converted)
[3] = Hepatocyte incubation, metabolic profile, dog; assay type: in vitro ADME
[4] = Duration of plasma exposure after subcutaneous dosing, summary over species; assay type: in vivo, rat, dog, rabbit, human
[5] = Hepatocyte incubation, metabolic profile, rat; assay type: in vitro ADME
[6] = logD7.4 (physicochemical properties); details: pH 7.4
[7] = Pharmacokinetics after intravenous administration in rats; details: in vivo, Rat, IV Bolus, 1 mg/kg
Procedure: (§1) Animal experiments were performed in accordance with the Guide for the Care and Use of Laboratory Animals as adopted and promulgated by the U.S. National Institutes of Health or local equivalent and were approved by the Institution's Animal Care and Use Committee or local equivalent. Unless described otherwise, animals (mouse, rat, and dog studies) were maintained under standard conditions (12-hour light/dark cycle and approximately 21±4° C. and 55±15% relative humidity), and food (Rodent pellet chow [Research Diets, Brunswick N.J., or similar] or canine pellet [Certified Dog Diet 2021C, Harlan Teklad Diets, Madison, Wis.] or canned [i.e., Cesar® Mars Petcare, Victoria, Australia]) and water were available ad libitum. Unless described otherwise, drug formulations were administered s.c. daily (efficacy studies) or every 3 days (Q3D; safety studies).

[8] = system: plasma proteins; test: Protein binding in human plasma (dialysis); assay type: in vitro ADME; details: plasma; human, summary over concentrations; read-out: bound to plasma proteins
[9] = Protein binding in human plasma (dialysis); assay type: in vitro ADME; details: Human Plasma, read-out: % Bound (converted)
[10] = system: plasma proteins; test: Protein binding in rat plasma (dialysis); assay type: in vitro ADME; details: plasma; rat, summary over concentrations; read-out: bound to plasma proteins
[11] = Protein binding in rat plasma (dialysis); assay type: in vitro ADME; details: Rat Plasma, read-out: % Bound (converted)
[12] = Pharmacokinetics after subcutaneous administration in dogs; assay type: in vivo; details: plasma; Dog, SC, 1 mg/kg
Procedure: as §1
(§2) Assessment of differences in pharmacokinetics following subcutaneous administration reflect both differences in the pharmacokinetic properties of the compounds and differences in pharmaceutical factors that affect absorption of the formulations from the injection sites.

[13] = Pharmacokinetics after subcutaneous administration in rats; assay type: in vivo; details: plasma; Rat, SC, 6 mg/kg
Procedure: as §1, §2

[14] = system: plasma proteins; test: Protein binding in dog plasma (dialysis); assay type: in vitro ADME; details: plasma; dog, summary over concentrations; read-out: bound to plasma proteins
[15] = Protein binding in dog plasma (dialysis); assay type: in vitro ADME; details: Dog Plasma, read-out: % Bound (converted)
[16] = Pharmacokinetics after subcutaneous administration in rabbits; assay type: in vivo, Rabbit
Source text: as §2

[17] = Pharmacokinetic study in dogs, single s.c. injection (Example 3); details: both, beagle, dog, plasma, sc, 0.6 mg/kg
Procedure: (§3) Male and female beagle dogs of 9 to 11 months of age for PK characterization were individually housed at the testing facility Approximately 325 g of pelleted food was provided daily. […] Animals were observed twice daily for signs of ill health, morbidity, mortality, injury, and viability, and detailed clinical observations were conducted daily (including urine/fecal examination and hands-on examination). Food was weighed daily, and body weights were recorded at least weekly.
(§4) Samples were collected in tubes containing lithium heparin and processed for plasma by centrifugation (10 minutes at 3000 rpm). Supernatant was removed and stored frozen (−70° C.) until processed (BASi, West Lafayette, Ind.). Plasma drug concentration data were used to calculate PK parameters for individual concentration data using noncompartmental PK methods in Watson™ version 7.3.0.01 (Thermo Fisher Scientific, Inc., Waltham, Mass.).

[18] = Pharmacokinetics after intravenous administration in dogs; details: in vivo, Dog, IV Bolus, 1 mg/kg
Procedure: as §1

[19] = pKa (physicochemical properties)
[20] = Hepatocyte incubation, metabolic profile, human; assay type: in vitro ADME
[21] = dog, in vivo, sc
Procedure: as §3, §4

[22] = Pharmacokinetics after subcutaneous administration in humans; assay type: in vivo, Human
Source text: as §2

[23] = Toxicology study in the rat, s.c. Q3D for 28 days; assay type: in vivo, Sprague Dawley rats; details: for NOAEL at 28 days / AUC(0-t) / Cmax: Sprague Dawley; for AUC(0-t) / Cmax: 6 mg/kg, NOAEL 6 mg/kg; for AUC(0-t): read-out: AUC0-t at NOAEL
Procedure: Male and female Sprague Dawley rats 9-10 weeks of age (Envigo RMS, Inc., Indianapolis, Ind. or Orient Bio Inc., Gyeonggi-do, South Korea) were individually housed at the testing facility. […] Animals were allocated to treatment groups based on body weight, and body weight and food consumption were recorded weekly. […] At necropsy, macroscopic pathologic findings were recorded, sperm motility and morphology were determined, selected organs were weighed, and selected tissues were collected for microscopic examination.

[24] = female, rat, in vivo, sc, Day 1, female rats
[25] = female, rat, in vivo, sc, Day 28, female rats
[26] = male, rat, in vivo, sc, Day 28, male rats

CO[C@@H]1[C@H](OC(=O)N2CC(CCN3CCOCC3)C2)CC[C@]2(CO2)[C@H]1[C@@]1(C)O[C@@H]1CC=C(C)C [Compound A] gave a solubility [1] of over 100 mg/mL, a fraction unbound at 4 h, 5 nM ([2]; intended 5 nM, actual 5.20 nM at end of 4-hour dialysis) of 0.298 and a fraction unbound at 4 h, 10 nM ([2]; intended 10 nM, actual 11.1 nM) of 0.293. It also gave a fraction unbound at 4 h, 50 nM ([2]; intended 50 nM, actual 56.4 nM) of 0.302, a fraction unbound at 4 h, 100 nM ([2]; intended 100 nM, actual 112 nM) of 0.333 and a fraction unbound at 4 h, 500 nM ([2]; intended 500 nM, actual 496 nM) of 0.377. The fraction unbound at 4 h, 1000 nM ([2]; intended 1000 nM, actual 868 nM) was 0.46, the “metabolic profile / predominant pathway in hepatocytes” value [3] was “oxidative (CYP-mediated) metabolism being predominant” and the “time for concentrations in plasma to return to baseline” value ([4]; all species) was at most 8 h. The “interval between doses with plasma concentrations at background / minimal exposure” value ([4]; dosing once every 3 days in animals and twice a week in humans) was “approximately 54 hours”, the “metabolic profile / predominant pathway in hepatocytes” value [5] was “higher amount of GSH-metabolism than for dog and human hepatocytes” and the logD7.4 [6] was 2.28. It also gave a clearance ([7]; kel and dependent parameters estimated using two time points) of 252 mL/min/kg, a half-life ([7]; kel and dependent parameters estimated using two time points (1 and 2 hours)) of 93 ± 62.4 min and a Vd ([7]; kel and dependent parameters estimated using two time points, read-out: Vdss) of 2.11 ± 0.1 L/kg. The fraction unbound [8] was 0.65 to 0.75, the fraction unbound at 4 h, 5 nM ([9]; intended 5 nM, actual 1.49 nM at end of 4-hour dialysis) was 0.664 and the fraction unbound at 4 h, 10 nM ([9]; intended 10 nM, actual 3.14 nM) was 0.681. The fraction unbound at 4 h, 50 nM ([9]; intended 50 nM, actual 15.5 nM) was 0.688, the fraction unbound at 4 h, 100 nM ([9]; intended 100 nM, actual 32.7 nM) was 0.694 and the fraction unbound at 4 h, 500 nM ([9]; intended 500 nM, actual 165 nM) was 0.704. For the same compound, the fraction unbound at 4 h, 1000 nM ([9]; intended 1000 nM, actual 338 nM) was 0.748, the fraction unbound at 4 h [10] was 0.3 to 0.6 and the fraction unbound at 4 h, 5 nM ([11]; intended 5 nM, actual 3.64 nM at end of 4-hour dialysis) was 0.323. For the same compound, the fraction unbound at 4 h, 10 nM ([11]; intended 10 nM, actual 7.60 nM) was 0.29, the fraction unbound at 4 h, 50 nM ([11]; intended 50 nM, actual 39.7 nM) was 0.426 and the fraction unbound at 4 h, 100 nM ([11]; intended 100 nM, actual 76.0 nM) was 0.466. The fraction unbound at 4 h, 500 nM ([11]; intended 500 nM, actual 370 nM) was 0.451, the fraction unbound at 4 h, 1000 nM ([11]; intended 1000 nM, actual 595 nM) was 0.566 and the AUC(0-t) [12] was 348 ± 42 ng·h/mL. It also gave a Cmax [12] of 122 ± 29 ng/mL, a Tmax [12] of 55 ± 10 min and a half-life [12] of 62.4 ± 18 min. For the same compound, the AUC(0-t) [13] was 391 ± 54 ng·h/mL, the Cmax [13] was 323 ± 26 ng/mL and the Tmax [13] was 17.5 ± 5.04 min. The fraction unbound at 4 h [14] was 0.3 to 0.6, the fraction unbound at 4 h, 5 nM ([15]; intended 5 nM, actual 3.17 nM at end of 4-hour dialysis) was 0.311 and the fraction unbound at 4 h, 10 nM ([15]; intended 10 nM, actual 6.05 nM) was 0.406. It also gave a fraction unbound at 4 h, 50 nM ([15]; intended 50 nM, actual 32.0 nM) of 0.326, a fraction unbound at 4 h, 100 nM ([15]; intended 100 nM, actual 59.1 nM) of 0.403 and a fraction unbound at 4 h, 500 nM ([15]; intended 500 nM, actual 320 nM) of 0.457. For the same compound, the fraction unbound at 4 h, 1000 nM ([15]; intended 1000 nM, actual 527 nM) was 0.469, the AUC(0-t) ([16]; plasma, Rabbit, SC, 1 mg/kg) was 207 ± 45 ng·h/mL and the Cmax ([16]; plasma, Rabbit, SC, 1 mg/kg) was 173 ± 34 ng/mL. The Tmax ([16]; plasma, Rabbit, SC, 1 mg/kg) was 19.8 ± 8.4 min, the half-life ([16]; plasma, Rabbit, SC, 1 mg/kg) was 36.9 ± 10.1 min and the “time after dosing at which plasma concentrations were below the lower limit of quantification” value ([16]; rabbit, subcutaneous, last sampling time 8 hours) was at most 4 h. It also gave a half-life [17] of 24 min, a clearance [18] of 45.3 mL/min/kg and a half-life [18] of 39.7 ± 6.06 min. For the same compound, the Vd ([18]; read-out: Vdss) was 1.48 ± 0.17 L/kg, the pKa [19] was 7.17 and the “metabolic profile / predominant pathway in hepatocytes” value [20] was “oxidative (CYP-mediated) metabolism being predominant”. The “plasma concentration after the 4-hour timepoint” value [21] was “undetectable”, the Cmax ([22]; Human, SC, 2.4 mg) was 13.5 ± 2.7 ng/mL and the Tmax ([22]; Human, SC, 2.4 mg) was 15 ± 0 min. For the same compound, the kel ([22]; Human, SC, 2.4 mg) was 1.09 ± 0.34 h⁻¹, the Vdss ([22]; Human, SC, 2.4 mg, estimated from subcutaneous dosing) was 3.78 ± 1.54 L/kg and the “plasma concentration at 8 hours after dosing” value ([22]; humans, 2.4 mg subcutaneous dose) was “not quantifiable”. The AUC(0-inf) ([22]; plasma, Human, SC, 2.4 mg) was 8.05 ± 1.42 ng·h/mL, the half-life ([22]; plasma, Human, SC, 2.4 mg) was 40.9 ± 11.9 min and the NOAEL at 28 days ([23]; rat, in vivo, sc, female rats, s.c. Q3D, 4 weeks, read-out: NOAEL (F)) was 6 mg/kg. For the same compound, the NOAEL at 28 days ([23]; rat, in vivo, sc, male rats, s.c. Q3D, 4 weeks, read-out: NOAEL) was 6 mg/kg, the AUC(0-t) ([23]; both sexes, rat, in vivo, sc, Day 1, male rats) was 349 ng·h/mL and the Cmax [23, 24] was 278 ng/mL. The AUC(0-t) [23, 24] was 262 ng·h/mL, the Cmax [23, 25] was 412 ng/mL and the AUC(0-t) [23, 25] was 288 ng·h/mL. For the same compound, the Cmax ([23]; male, rat, in vivo, sc, Day 1, male rats) was 351 ng/mL, the Cmax [23, 26] was 426 ng/mL and the AUC(0-t) [23, 26] was 409 ng·h/mL. The “tolerability of the highest dose” value ([23]; rat, in vivo, sc, 25 mg/kg) was “well tolerated” and the Mortality/early euthanasia ([23]; rats, s.c. Q3D, 4 weeks) was “no mortality and None”.
